Measured values as given in ChEMBL document CHEMBL1201862, “PubChem BioAssay data set” (2004).
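These data come from cells grown in 96-well plates and exposed to compound for 48 hours at five concentrations. The concentration for 50% growth inhibition is given as GI50.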 The source made the active and inactive calls. No stated cut-off is given here; in the data, active = GI50 up to about 1.1 µM and inactive = higher.

How the values were obtained:
Experiment in all cases: inhibition of tumour cell growth, NCI panel, 48 h
A549 = system: A549
BT-549 = system: BT-549
CAKI-1 = system: CAKI-1
COLO 205 = system: COLO 205
HOP-62 = system: HOP-62
KM12 = system: KM12
MCF7 = system: MCF7
MOLT-4 = system: MOLT-4
NCI-H226 = system: NCI-H226
NCI-H23 = system: NCI-H23
OVCAR-8 = system: OVCAR-8
PC-3 = system: PC-3
RPMI-8226 = system: RPMI-8226
SF-268 = system: SF-268
SNB-19 = system: SNB-19
SW-620 = system: SW-620
UACC-257 = system: UACC-257
UACC-62 = system: UACC-62
DU-145 = system: DU-145
HL-60 = system: HL-60

`CCOc1ccc(N/C(=C(/C(Cl)=C(/Cl)NCCN)[N+](=O)[O-])n2nnc3ccccc32)cc1` was tested, and the GI50 (A549) was > 100 µM (inactive), the GI50 (BT-549) was 28.4 µM (inactive) and the GI50 (CAKI-1) was 17.2 µM (inactive). The GI50 (COLO 205) was 15.6 µM (inactive), the GI50 (HOP-62) was 90.8 µM (inactive) and the GI50 (KM12) was 30.8 µM (inactive). The GI50 (MCF7) was 35 µM (inactive), the GI50 (MOLT-4) was 16.5 µM (inactive) and the GI50 (NCI-H226) was 86.1 µM (inactive). The GI50 (NCI-H23) was 32.5 µM (inactive), the GI50 (OVCAR-8) was 15 µM (inactive) and the GI50 (PC-3) was 28.8 µM (inactive). The GI50 (RPMI-8226) was 30.9 µM (inactive), the GI50 (SF-268) was 13.6 µM (inactive) and the GI50 (SNB-19) was > 100 µM (inactive). For the same compound, the GI50 (SW-620) was 6.79 µM (inactive), the GI50 (UACC-257) was > 100 µM (inactive) and the GI50 (UACC-62) was 43.5 µM (inactive).

In the case of `CS/C(N)=N/c1cccc2ccccc12`, the GI50 (A549) is reported as > 10 µM (inactive), the GI50 (CAKI-1) is reported as > 10 µM (inactive) and the GI50 (COLO 205) is reported as > 10 µM (inactive). For the same compound, the GI50 (DU-145) was > 10 µM (inactive), the GI50 (HL-60) was > 10 µM (inactive) and the GI50 (HOP-62) was > 10 µM (inactive). The GI50 (KM12) was > 10 µM (inactive), the GI50 (MCF7) was > 10 µM (inactive) and the GI50 (MOLT-4) was > 10 µM (inactive). The GI50 (NCI-H226) was > 10 µM (inactive), the GI50 (NCI-H23) was > 10 µM (inactive) and the GI50 (OVCAR-8) was > 10 µM (inactive). The GI50 (PC-3) was > 10 µM (inactive), the GI50 (RPMI-8226) was > 10 µM (inactive) and the GI50 (SF-268) was > 10 µM (inactive). The GI50 (SNB-19) was > 10 µM (inactive), the GI50 (SW-620) was > 10 µM (inactive) and the GI50 (UACC-257) was > 10 µM (inactive). The GI50 (UACC-62) was > 10 µM (inactive).

`COC1(C)OC[C@@]2(C)OC(C)C1(C)C2O[Si](C(C)C)(C(C)C)C(C)C` (some centres not stated) was tested, and the GI50 (A549) was 32.2 µM (inactive), the GI50 (CAKI-1) was 28.6 µM (inactive) and the GI50 (COLO 205) was 17.8 µM (inactive). The GI50 (DU-145) was 38.7 µM (inactive), the GI50 (HL-60) was 17.5 µM (inactive) and the GI50 (HOP-62) was 28.6 µM (inactive). For the same compound, the GI50 (KM12) was 31.8 µM (inactive), the GI50 (MCF7) was 18.4 µM (inactive) and the GI50 (MOLT-4) was 21.2 µM (inactive). The GI50 (NCI-H226) was 19.5 µM (inactive), the GI50 (NCI-H23) was 25.7 µM (inactive) and the GI50 (OVCAR-8) was 36.8 µM (inactive). For the same compound, the GI50 (PC-3) was 31.2 µM (inactive), the GI50 (RPMI-8226) was 28.2 µM (inactive) and the GI50 (SF-268) was 31.8 µM (inactive). For the same compound, the GI50 (SNB-19) was 48.9 µM (inactive), the GI50 (SW-620) was 33.5 µM (inactive) and the GI50 (UACC-257) was 19.9 µM (inactive). The GI50 (UACC-62) was 31 µM (inactive).

`O=c1[nH]c(Nc2nc3ccccc3[nH]2)nc(O)c1Cc1ccccc1` was tested, and the GI50 (A549) was > 100 µM (inactive), the GI50 (BT-549) was > 100 µM (inactive) and the GI50 (CAKI-1) was > 100 µM (inactive). For the same compound, the GI50 (COLO 205) was > 100 µM (inactive), the GI50 (DU-145) was > 100 µM (inactive) and the GI50 (HL-60) was > 100 µM (inactive). For the same compound, the GI50 (KM12) was > 100 µM (inactive), the GI50 (MOLT-4) was > 100 µM (inactive) and the GI50 (NCI-H226) was > 100 µM (inactive). For the same compound, the GI50 (NCI-H23) was > 100 µM (inactive), the GI50 (OVCAR-8) was > 100 µM (inactive) and the GI50 (PC-3) was > 100 µM (inactive). For the same compound, the GI50 (RPMI-8226) was > 100 µM (inactive), the GI50 (SF-268) was > 100 µM (inactive) and the GI50 (SNB-19) was 67.8 µM (inactive). The GI50 (SW-620) was > 100 µM (inactive), the GI50 (UACC-257) was > 100 µM (inactive) and the GI50 (UACC-62) was > 100 µM (inactive).

With `CC(C)(C)[Si](C)(C)OCC1OC(n2ccc(=O)[nH]c2=O)C(O[Si](C)(C)C(C)(C)C)/C1=C/C#N` (configuration not stated) the GI50 (A549) was 4.18 µM (inactive), the GI50 (CAKI-1) was 8.43 µM (inactive) and the GI50 (COLO 205) was 2.61 µM (inactive). For the same compound, the GI50 (DU-145) was 5.48 µM (inactive), the GI50 (HL-60) was 2.86 µM (inactive) and the GI50 (HOP-62) was 12.5 µM (inactive). For the same compound, the GI50 (KM12) was 3.66 µM (inactive), the GI50 (MCF7) was 3.96 µM (inactive) and the GI50 (MOLT-4) was 2.72 µM (inactive). The GI50 (NCI-H226) was 16.8 µM (inactive), the GI50 (NCI-H23) was 5.89 µM (inactive) and the GI50 (OVCAR-8) was 6.65 µM (inactive). The GI50 (PC-3) was 2.88 µM (inactive), the GI50 (RPMI-8226) was 3.71 µM (inactive) and the GI50 (SF-268) was 6.56 µM (inactive). The GI50 (SNB-19) was 31.8 µM (inactive), the GI50 (SW-620) was 0.838 µM (active) and the GI50 (UACC-257) was 7.19 µM (inactive). The GI50 (UACC-62) was 1.07 µM (active).

For `C=CCN1C(=O)N/C(=C\c2ccc(Cl)cc2)C1=O`, the GI50 (A549) was 83.9 µM (inactive), the GI50 (BT-549) was > 100 µM (inactive) and the GI50 (CAKI-1) was > 100 µM (inactive). The GI50 (COLO 205) was > 100 µM (inactive), the GI50 (DU-145) was > 100 µM (inactive) and the GI50 (HL-60) was > 100 µM (inactive). For the same compound, the GI50 (HOP-62) was > 100 µM (inactive), the GI50 (KM12) was > 100 µM (inactive) and the GI50 (MCF7) was > 100 µM (inactive). For the same compound, the GI50 (MOLT-4) was > 100 µM (inactive), the GI50 (NCI-H226) was > 100 µM (inactive) and the GI50 (NCI-H23) was > 100 µM (inactive). For the same compound, the GI50 (OVCAR-8) was > 100 µM (inactive), the GI50 (RPMI-8226) was > 100 µM (inactive) and the GI50 (SF-268) was > 100 µM (inactive). For the same compound, the GI50 (SNB-19) was > 100 µM (inactive), the GI50 (SW-620) was > 100 µM (inactive) and the GI50 (UACC-257) was > 100 µM (inactive). For the same compound, the GI50 (UACC-62) was 97.7 µM (inactive).
